Data as given in US6743824B2 (Somerset Pharmaceuticals, Inc., priority 1996, dated 2004).
Structures can show the parent of a compound that is named as a salt.

Columns and labels:
[1] = system: peripheral neuropathy caused by vincristine; assay: Treatment of peripheral neuropathy caused by vincristine (Example 1); assay type: in vivo, human; conditions: patient with endometrial carcinoma on vincristine 1.4 mg/m^2 weekly; 5 mg orally twice a day
Method: A patient with endometrial carcinoma is given an intravenous bolus injection of vincristine at a dose of 1.4 mg/m^2 weekly. The toxic effects of vincristine cause sensory loss in the fingers and toes, a loss of the ankle jerk reflex, weakness and postural hypotension. […] During this time, therapy with vincristine is continued and evaluations of both tumor response and toxic side effects are carried out by a physician on a weekly basis. After continued therapy, symptoms associated with peripheral neuropathy subside. At this point, the dosage of vincristine is increased to 1.8 mg/m^2 and the process is continued.

spinal motor neurons = conditions: rat; Iwasaki et al. 1994; cited from earlier work
[2] = system: cultured spinal cord neuron; conditions: Iwasaki et al. 1994; cited from earlier work
[3] = system: axotomized rat facial motor neurons; conditions: Salo et al. 1992; cited from earlier work
CNS neurons = conditions: toxins such as MPP+, kainic acid or DSP-4; cited from earlier work
retinal ganglion cells = conditions: rat optic nerve crush model; Buys et al. 1994; cited from earlier work

SMILES	symptoms associated with peripheral neuropathy [1]	effect on axotomy-induced cell death in spinal motor neurons (spinal motor neurons)	neurite outgrowth [2]	rescue of axotomized facial motor neurons [3]	survival of CNS neurons after exposure to chemical toxins (CNS neurons)	survival of retinal ganglion cells at risk of undergoing apoptosis (retinal ganglion cells)
C#CCN(C)[C@H](C)Cc1ccccc1 [selegiline hydrochloride]	subside					
C#CCN(C)C(C)Cc1ccccc1 (stereo not drawn) [selegiline, R-(−)-N-methyl-N-(prop-2-ynyl)-2-aminophenylpropane]		neuroprotective effect	enhance neurite outgrowth	capable of rescuing	increase the survival	increase the survival
